From patent US10526327B2, “Histone demethylase inhibitors” (CELGENE QUANTICEL RESEARCH, INC., priority 2013, dated 2020)
pIC50: −log10 of the molar value.

Target: T1, Jarid1A (Homo sapiens, UniProt P29375)
T1 construct: purchased BPS Bioscience 50110
T1 sequence (P29375 1-1090): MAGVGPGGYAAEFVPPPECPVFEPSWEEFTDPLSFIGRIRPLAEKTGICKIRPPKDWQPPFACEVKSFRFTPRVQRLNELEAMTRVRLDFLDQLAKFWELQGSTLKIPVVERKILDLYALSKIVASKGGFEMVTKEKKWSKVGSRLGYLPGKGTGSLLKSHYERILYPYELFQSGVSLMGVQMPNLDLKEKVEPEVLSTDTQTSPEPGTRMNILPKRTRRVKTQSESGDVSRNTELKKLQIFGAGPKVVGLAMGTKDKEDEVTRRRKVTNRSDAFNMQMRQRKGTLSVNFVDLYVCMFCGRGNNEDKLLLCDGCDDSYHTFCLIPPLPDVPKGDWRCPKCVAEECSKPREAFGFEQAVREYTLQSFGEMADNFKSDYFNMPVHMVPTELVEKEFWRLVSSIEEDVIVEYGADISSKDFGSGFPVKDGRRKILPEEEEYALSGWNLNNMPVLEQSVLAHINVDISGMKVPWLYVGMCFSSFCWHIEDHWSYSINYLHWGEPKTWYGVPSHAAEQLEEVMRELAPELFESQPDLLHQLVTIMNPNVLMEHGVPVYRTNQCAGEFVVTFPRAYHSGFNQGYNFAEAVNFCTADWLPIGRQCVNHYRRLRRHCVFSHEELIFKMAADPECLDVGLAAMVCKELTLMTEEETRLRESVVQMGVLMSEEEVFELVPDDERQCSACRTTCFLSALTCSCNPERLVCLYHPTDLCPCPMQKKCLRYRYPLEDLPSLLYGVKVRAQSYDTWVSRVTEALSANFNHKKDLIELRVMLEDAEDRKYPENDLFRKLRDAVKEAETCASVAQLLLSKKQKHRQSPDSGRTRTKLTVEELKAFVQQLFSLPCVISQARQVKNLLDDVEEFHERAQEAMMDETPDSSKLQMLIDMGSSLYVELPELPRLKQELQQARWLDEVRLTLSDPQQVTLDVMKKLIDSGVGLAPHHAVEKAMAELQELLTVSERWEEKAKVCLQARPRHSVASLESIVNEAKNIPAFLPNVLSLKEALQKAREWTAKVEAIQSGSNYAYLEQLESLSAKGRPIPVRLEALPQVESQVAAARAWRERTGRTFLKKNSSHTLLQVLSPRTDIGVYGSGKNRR
Test: Jarid1A in vitro enzyme inhibition assay (TR-FRET)
Format: biochemical
Description: This assay determines the ability of a test compound to inhibit Jarid1A, Jarid1B, and JMJD2C demethylase activity. Baculovirus expressed Jarid1A (GenBank Accession #NM_001042603, AA1-1090) was purchased from BPS Bioscience (Cat#50110). Baculovirus expressed Jarid1B (GenBank Accession #NM_006618, AA 2-751) was purchased from BPS Bioscience (Cat #50121) or custom made by MolecularThroughput. Baculovirus expressed JMJD2C (GenBank Accession #BC143571, AA 2-372) was purchased from BPS Bioscience (Cat#50105).
The enzymatic assay of Jarid1A activity is based upon Time Resolved-Fluorescence Resonance Energy Transfer (TR-FRET) detection. The ability of test compounds to inhibit the activity of Jarid1A was determined in 384-well plate format under the following reaction conditions: 1 nM Jarid1A, 300 nM H3K4me3-biotin labeled peptide (Anaspec cat #64357), 2 μM alpha-ketoglutaric acid in assay buffer of 50 mM HEPES, pH7.3, 0.005% Brij35, 0.5 mM TCEP, 0.2 mg/ml BSA, 50 μM sodium L-ascorbate, and 2 μM ammonium iron(II) sulfate. Reaction product was determined quantitatively by TR-FRET after the addition of detection reagent Phycolink Streptavidin-allophycocyanin (Prozyme) and Europium-anti-mono-or di-methylated histone H3 lysine 4 (H3K4me1-2) antibody (PerkinElmer) in the presence of 5 mM EDTA in LANCE detection buffer (PerkinElmer) at a final concentration of 25 nM and 1 nM, respectively.
The assay reaction was initiated by the following: 2 μl of the mixture of 900 nM H3K4me3-biotin labeled peptide and 6 μM alpha-ketoglutaric acid with 2 μl of 11-point serial diluted inhibitor in 3% DMSO was added to each well of plate, followed by the addition of 2 μl of 3 nM Jarid1A to initiate the reaction. The reaction mixture was incubated at room temperature for 30 minutes, and terminated by the addition of 6 μl of 5 mM EDTA in LANCE detection buffer containing 50 nM Phycolink Streptavidin-allophycocyanin and 2 nM Europium-anti-H3K4me1-2 antibody. Plates were read by EnVisionMultilabel Reader in TR-FRET mode (excitation at 320 nm, emission at 615 nm and 665 nm) after 1 hour incubation at room temperature. A ratio was calculated (665/615) for each well and fitted to determine inhibition constant (IC50).

pIC50	SMILES
≥ 7.00	Oc1nc(Oc2cnn(Cc3ccccc3)c2)nc2cnccc12 [Example 66, 2-[(1-benzyl-1H-pyrazol-4-yl)oxy]pyrido[3,4-d]pyrimidin-4-ol]
≥ 7.00	Oc1nc(Oc2cnn(C3CCOCC3)c2)nc2cnccc12 [Example 67, 2-{[1-(tetrahydro-2H-pyran-4-yl)-1H-pyrazol-4-yl]oxy}pyrido[3,4-d]pyrimidin-4-ol]
≥ 7.00	Oc1nc(Oc2cnn(Cc3ccc(F)cc3)c2)nc2cnccc12 [Example 86, 2-[1-(4-fluorobenzyl)pyrazol-4-yl]oxypyrido[3,4-d]pyrimidin-4-ol]
≥ 7.00	Oc1nc(Oc2cnn(Cc3ccccc3F)c2)nc2cnccc12 [Example 87, 2-[1-(2-fluorobenzyl)pyrazol-4-yl]oxypyrido[3,4-d]pyrimidin-4-ol]
≥ 7.00	CC(C)(C)OC(=O)N1CCC(n2cc(Oc3nc(O)c4ccncc4n3)cn2)CC1 [Example 88, tert-butyl 4-[4-(4-hydroxypyrido[3,4-d]pyrimidin-2-yl)oxypyrazol-1-yl]piperidine-1-carboxylate]
≥ 7.00	Oc1nc(Oc2cnn(C3CCNCC3)c2)nc2cnccc12 [Example 89, 2-(1-piperidin-4-ylpyrazol-4-yl)oxypyrido[3,4-d]pyrimidin-4-ol]
≥ 7.00	CC(=O)N1CCC(n2cc(Oc3nc(O)c4ccncc4n3)cn2)CC1 [Example 90, 1-[4-[4-(4-hydroxypyrido[3,4-d]pyrimidin-2-yl)oxypyrazol-1-yl]piperidin-1-yl]ethanone]
≥ 7.00	C=CC(=O)N1CCC(n2cc(Oc3nc(O)c4ccncc4n3)cn2)CC1 [Example 91, 1-[4-[4-(4-hydroxypyrido[3,4-d]pyrimidin-2-yl)oxypyrazol-1-yl]piperidin-1-yl]prop-2-en-1-one]
≥ 7.00	O=C(C1CC1)N1CCC(n2cc(Oc3nc(O)c4ccncc4n3)cn2)CC1 [Example 92, cyclopropyl-[4-[4-(4-hydroxypyrido[3,4-d]pyrimidin-2-yl)oxypyrazol-1-yl]piperidin-1-yl]methanone]
≥ 7.00	O=C(c1ccc(F)cc1)N1CCC(n2cc(Oc3nc(O)c4ccncc4n3)cn2)CC1 [Example 93, (4-fluorophenyl)-[4-[4-(4-hydroxypyrido[3,4-d]pyrimidin-2-yl)oxypyrazol-1-yl]piperidin-1-yl]methanone]
≥ 7.00	O=S(=O)(C1CC1)N1CCC(n2cc(Oc3nc(O)c4ccncc4n3)cn2)CC1 [Example 94, 2-[1-(1-cyclopropylsulfonylpiperidin-4-yl)pyrazol-4-yl]oxypyrido[3,4-d]pyrimidin-4-ol]
≥ 7.00	O=S(=O)(c1ccccc1)N1CCC(n2cc(Oc3nc(O)c4ccncc4n3)cn2)CC1 [Example 95, 2-[1-[1-(benzenesulfonyl)piperidin-4-yl]pyrazol-4-yl]oxypyrido[3,4-d]pyrimidin-4-ol]

Continued, molecule first:

SMILES	pIC50
COc1nc(O)c2ccnc(-c3cn(C)cn3)c2n1 [Example 68, 2-methoxy-8-(1-methyl-1H-imidazol-4-yl)pyrido[3,4-d]pyrimidin-4-ol]	≥ 7.00
CCOc1nc(O)c2ccnc(-c3cn(C)cn3)c2n1 [Example 69, 2-ethoxy-8-(1-methyl-1H-imidazol-4-yl)pyrido[3,4-d]pyrimidin-4-ol]	≥ 7.00
Cn1cnc(-c2nccc3c(O)nc(OCC(F)(F)F)nc23)c1 [Example 70, 8-(1-methyl-1H-imidazol-4-yl)-2-(2,2,2-trifluoroethoxy)pyrido[3,4-d]pyrimidin-4-ol]	≥ 7.00
Cn1cnc(-c2nccc3c(O)nc(OCc4ccc(F)cc4)nc23)c1 [Example 71, 2-[(4-fluorobenzyl)oxy]-8-(1-methyl-1H-imidazol-4-yl)pyrido[3,4-d]pyrimidin-4-ol]	≥ 7.00
Cn1cnc(-c2nccc3c(O)nc(OCC4CC4)nc23)c1 [Example 72, 2-(cyclopropylmethoxy)-8-(1-methylimidazol-4-yl)pyrido[3,4-d]pyrimidin-4-ol]	≥ 7.00
Cn1cnc(-c2nccc3c(O)nc(OCCCC(F)(F)F)nc23)c1 [Example 74, 8-(1-methylimidazol-4-yl)-2-(4,4,4-trifluorobutoxy)pyrido[3,4-d]pyrimidin-4-ol]	≥ 7.00
Cn1cnc(-c2nccc3c(O)nc(OCCO)nc23)c1 [Example 75, 2-(2-hydroxyethoxy)-8-(1-methylimidazol-4-yl)pyrido[3,4-d]pyrimidin-4-ol]	≥ 7.00
CN(C)CCOc1nc(O)c2ccnc(-c3cn(C)cn3)c2n1 [Example 76, 2-[2-(dimethylamino)ethoxy]-8-(1-methylimidazol-4-yl)pyrido[3,4-d]pyrimidin-4-ol]	6.00 to 7.00
Cn1cnc(-c2nccc3c(O)nc(OCC(F)F)nc23)c1 [Example 77, 2-(2,2-difluoroethoxy)-8-(1-methylimidazol-4-yl)pyrido[3,4-d]pyrimidin-4-ol]	≥ 7.00
Cn1cnc(-c2nccc3c(O)nc(OCCC4CC4)nc23)c1 [Example 78, 2-(2-cyclopropylethoxy)-8-(1-methylimidazol-4-yl)pyrido[3,4-d]pyrimidin-4-ol]	≥ 7.00
Cn1cnc(-c2nccc3c(O)nc(Oc4cnn(Cc5ccccc5)c4)nc23)c1 [Example 79, 2-(1-benzylpyrazol-4-yl)oxy-8-(1-methylimidazol-4-yl)pyrido[3,4-d]pyrimidin-4-ol]	≥ 7.00
CC(C)CCn1cc(Oc2nc(O)c3ccnc(-c4cn(C)cn4)c3n2)cn1 [Example 80, 2-[1-(3-methylbutyl)pyrazol-4-yl]oxy-8-(1-methylimidazol-4-yl)pyrido[3,4-d]pyrimidin-4-ol]	≥ 7.00
Cn1cnc(-c2nccc3c(O)nc(Oc4ccc(F)c(F)c4)nc23)c1 [Example 81, 2-(3,4-difluorophenoxy)-8-(1-methylimidazol-4-yl)pyrido[3,4-d]pyrimidin-4-ol]	≥ 7.00
COCCOc1ccc(Oc2nc(O)c3ccnc(-c4cn(C)cn4)c3n2)cc1 [Example 82, 2-[4-(2-methoxyethoxy)phenoxy]-8-(1-methylimidazol-4-yl)pyrido[3,4-d]pyrimidin-4-ol]	≥ 7.00
Cn1cnc(-c2nccc3c(O)nc(Oc4ccc5cnn(C)c5c4)nc23)c1 [Example 83, 8-(1-methylimidazol-4-yl)-2-(1-methylindazol-6-yl)oxypyrido[3,4-d]pyrimidin-4-ol]	≥ 7.00
CCn1ncc2ccc(Oc3nc(O)c4ccnc(-c5cn(C)cn5)c4n3)cc21 [Example 84, 2-(1-ethylindazol-6-yl)oxy-8-(1-methylimidazol-4-yl)pyrido[3,4-d]pyrimidin-4-ol]	≥ 7.00
Cc1nn(C)c2cc(Oc3nc(O)c4ccnc(-c5cn(C)cn5)c4n3)ccc12 [Example 85, 2-(1,3-dimethylindazol-6-yl)oxy-8-(1-methylimidazol-4-yl)pyrido[3,4-d]pyrimidin-4-ol]	≥ 7.00
Oc1nc(Oc2ccnc(N3CCNCC3)c2)nc2cnccc12 [Example 96, 2-(2-piperazin-1-ylpyridin-4-yl)oxypyrido[3,4-d]pyrimidin-4-ol]	≥ 7.00
